From patent publication US9493466B2, “Treatment of cancer with TOR kinase inhibitors” (Signal Pharmaceuticals, LLC, priority 2011, dated 2016)

Experiments:
Assay in all cases: Growth inhibition assay for NHL lines
Format in all cases: cell-based
RIVA = conditions: NHL DLBCL, 96 hours, n ≧ 3
Experimental: (§1) Growth Inhibition Assay for HCC and NHL Lines. The seeding density for each cell line was optimized to ensure assay linearity in 384-well plates.
(§2) Compound 1 was dissolved in dimethyl sulfoxide (DMSO) to prepare a 10 mM stock solution. A serial titration was performed to produce a working concentration range of […] to 10 mM. Aliquots to produce final concentrations of 1.5 nM to 10 μM were spotted via an acoustic dispenser (EDC ATS-100) into an empty 384-well plate. Compound 1 was spotted in a 10-point serial dilution fashion (3-fold dilution) in duplicate within the plate. The DMSO concentration was kept constant for a final assay concentration of 0.1% DMSO. Plates were replicated for use with different cell lines and testing periods. After compound plate replication, all plates were sealed (Agilent ThermoLoc) and stored at −20° C. for up to 1 month. […] When ready for testing, plates were removed from the freezer, thawed, and unsealed just prior to the addition of the test cells. Prior to testing, cells were grown and expanded in culture flasks to provide sufficient amounts of starting material. Cells were then diluted to the appropriate densities and added directly to the compound-spotted 384-well plates. Cells were allowed to grow for 96 hours at 37° C./5% CO2. At the time when compound was added (t0), initial cell number was assessed via a viability assay (Cell Titer-Glo) by quantifying the level of luminescence generated by ATP present in viable cells. After 96 hours, cell viability of compound-treated cells was assessed via Cell Titer-Glo and luminescence measurement. Cell lines were assayed for growth inhibition by Compound 1 in at least 3 independent tests. A control cell line (the lung tumor cell line, A549) was included in each of the assays. The compound response against this control cell line was monitored closely to enable comparison of the data generated through the assay period. All data were normalized and presented as a percentage of the DMSO-treated cells. Results were then expressed as a GI50 value. The GI50 value corrects for the cell count at time zero. In addition, the IC50 value of Compound 1 for each cell line was calculated.

OCI-LY-19 = conditions: OCI-LY-19, NHL DLBCL, 96 hours, n ≧ 3
Experimental: as §1, §2

SU-DHL-1 = conditions: SU-DHL-1, ALCL T-cell, 96 hours, n ≧ 3
Experimental: as §1, §2

OCI-LY-7 = conditions: OCI-LY-7, NHL DLBCL, 96 hours, n ≧ 3
Experimental: as §1, §2

KG-1 = conditions: KG-1, Leukemia M-AML, 96 hours, n ≧ 3
Experimental: as §1, §2

JVM-13 = conditions: JVM-13, NHL MCL, 96 hours, n ≧ 3
Experimental: as §1, §2

SU-DHL-10 = conditions: SU-DHL-10, NHL DLBCL, 96 hours, n ≧ 3
Experimental: as §1, §2

Toledo = conditions: NHL DLBCL, 96 hours, n ≧ 3
Experimental: as §1, §2

OCI-LY-10 = conditions: OCI-LY-10, NHL DLBCL, 96 hours, n ≧ 3
Experimental: as §1, §2

HL-60 = conditions: HL-60, Leukemia M-AML, 96 hours, n ≧ 3
Experimental: as §1, §2

DB = conditions: NHL DLBCL, 96 hours, n ≧ 3
Experimental: as §1, §2

Granta-519 = conditions: Granta-519, NHL MCL, 96 hours, n ≧ 3
Experimental: as §1, §2

REC-1 = conditions: REC-1, NHL MCL, 96 hours, n ≧ 3
Experimental: as §1, §2

SU-DHL-5 = conditions: SU-DHL-5, NHL DLBCL, 96 hours, n ≧ 3
Experimental: as §1, §2

NU-DHL-1 = conditions: NU-DHL-1, NHL DLBCL, 96 hours, n ≧ 3
Experimental: as §1, §2

KASUMI-1 = conditions: KASUMI-1, Leukemia M-AML, 96 hours, n ≧ 3
Experimental: as §1, §2

KARPAS-299 = conditions: KARPAS-299, ALCL T-cell, 96 hours, n ≧ 3
Experimental: as §1, §2

SU-DHL-4 = conditions: SU-DHL-4, NHL DLBCL, 96 hours, n ≧ 3
Experimental: as §1, §2

DOHH-2 = conditions: DOHH-2, NHL FL, 96 hours, n ≧ 3
Experimental: as §1, §2

Farage = conditions: NHL DLBCL, 96 hours, n ≧ 3
Experimental: as §1, §2

U-2940 = conditions: U-2940, NHL DLBCL, 96 hours, n ≧ 3
Experimental: as §1, §2

KARPAS-1106P = conditions: NHL DLBCL, 96 hours, n ≧ 3
Experimental: as §1, §2

Mino = conditions: NHL MCL, 96 hours, n ≧ 3
Experimental: as §1, §2

SC-1 = conditions: SC-1, NHL FL, 96 hours, n ≧ 3
Experimental: as §1, §2

WSU-NHL = conditions: NHL FL, 96 hours, n ≧ 3
Experimental: as §1, §2

Structure (SMILES): CO[C@H]1CC[C@H](N2C(=O)CNc3ncc(-c4ccc(C(C)(C)O)nc4)nc32)CC1 [Compound 1, 7-(6-(2-hydroxypropan-2-yl)pyridin-3-yl)-1-((1r,4r)-4-methoxycyclohexyl)-3,4-dihydropyrazino-[2,3-b]pyrazin-2(1H)-one]
- GI50 (RIVA): 20 ± 10 nM
- IC50 (RIVA): 100 ± 50 nM
- GI50 (OCI-LY-19): 220 ± 60 nM
- IC50 (OCI-LY-19): 350 ± 80 nM
- GI50 (SU-DHL-1): 320 ± 20 nM
- IC50 (SU-DHL-1): 390 ± 30 nM
- GI50 (OCI-LY-7): 190 ± 30 nM
- IC50 (OCI-LY-7): 250 ± 30 nM
- GI50 (KG-1): 60 ± 20 nM
- IC50 (KG-1): 370 ± 40 nM
- GI50 (JVM-13): 1770 ± 1610 nM
- IC50 (JVM-13): 3490 ± 2480 nM
- GI50 (SU-DHL-10): 200 ± 20 nM
- IC50 (SU-DHL-10): 200 ± 30 nM
- GI50 (Toledo): 70 ± 20 nM
- IC50 (Toledo): 440 ± 20 nM
- GI50 (OCI-LY-10): 140 ± 40 nM
- IC50 (OCI-LY-10): 190 ± 40 nM
- GI50 (HL-60): 240 ± 60 nM
- IC50 (HL-60): 380 ± 130 nM
- GI50 (DB): 150 ± 100 nM
- IC50 (DB): 170 ± 90 nM
- GI50 (Granta-519): 380 ± 80 nM
- IC50 (Granta-519): 960 ± 100 nM
- GI50 (REC-1): 200 ± 40 nM
- IC50 (REC-1): 260 ± 50 nM
- GI50 (SU-DHL-5): 230 ± 130 nM
- IC50 (SU-DHL-5): 260 ± 140 nM
- GI50 (NU-DHL-1): 80 ± 30 nM
- IC50 (NU-DHL-1): 110 ± 50 nM
- GI50 (KASUMI-1): 40 ± 20 nM
- IC50 (KASUMI-1): 120 ± 30 nM
- GI50 (KARPAS-299): 330 ± 120 nM
- IC50 (KARPAS-299): 470 ± 220 nM
- GI50 (SU-DHL-4): 110 ± 40 nM
- IC50 (SU-DHL-4): 120 ± 50 nM
- GI50 (DOHH-2): 130 ± 20 nM
- IC50 (DOHH-2): 160 ± 30 nM
- GI50 (Farage): 270 ± 30 nM
- IC50 (Farage): 280 ± 40 nM
- GI50 (U-2940): 110 ± 70 nM
- IC50 (U-2940): 180 ± 100 nM
- GI50 (KARPAS-1106P): 70 ± 30 nM
- IC50 (KARPAS-1106P): 70 ± 30 nM
- GI50 (Mino): 370 ± 130 nM
- IC50 (Mino): 480 ± 100 nM
- GI50 (SC-1): 180 ± 10 nM
- IC50 (SC-1): 200 ± 10 nM
- GI50 (WSU-NHL): 50 nM
- IC50 (WSU-NHL): 70 nM
